We go through four compounds from US20230117831A1, “MULTI-FUNCTIONAL CHIMERIC MOLECULES” (THE BROAD INSTITUTE, INC., priority 2020, published 2023).

Each structure is given as a SMILES string. Entries after “also recorded” stand apart in the source; their conditions may differ.

For assay [1], the target named is T1, ABL (Homo sapiens, UniProt P00519). As to the kind of experiment: ADP-Glo ABL activation. In kind it is biochemical. The text has this:
To expand the scope of PHICS beyond the Ser/Thr kinases (AMPK or PKC), Applicants will develop PHICS using the Abelson (ABL) family that are nonreceptor tyrosine kinases with SH3-SH2-TK ([…]) domains (42, 43). An autoinhibitory mechanism involving intramolecular interactions stabilizes this kinase in a “locked” conformation, inhibiting kinase activity unless the SH3 domain interactions are disrupted by binding of an activator. The SH2 domain of ABL is responsible for substrate specificity: if the SH2 domain is exchanged for another protein's SH2 domain, then substrate specificity is altered (43). […] Both DPH and DPH with linker (FIG. 83B) activated ABL in […] (FIG. 83C).
For orientation: ADP-Glo first removes unused ATP, then detects ADP through luciferase.

In assay [2] the target is T1, ABL. Conditions: cited from earlier work.
Assay [3] has as its target T2, BRD4 (PKC) (Homo sapiens, UniProt O60885+P17252).
T2 construct: BRD4-GST (BD1 and BD2 (49-460))(31044); GST; purchased BPS Bioscience (BRD4); SignalChem (PKCα) 31044; P61-18G
As to the kind of experiment: ADP-Glo turnover assay, PKC + BRD4-GST. The assay is classed as biochemical. Conditions: limiting PKC 50 nM; iPHICS2 as negative control. The procedure: The same protocol was followed for PHICS2.3 as well. Initially, 1 μM of PHICS2.3 and (R)-PHICS2.3 were prepared in a 96 well plate (white, flat bottom) using kinase assay buffer and incubated with 50 nM PKC and 700 nM BRD4-GST (BD1 and BD2) for 1 hr at room temperature in the presence of 50 μM ATP before adding ADP-Glo reagents.

Assay [4] concerns the target T3, BRD4 (PKCα) (Homo sapiens, UniProt O60885+P17252).
T3 construct: BRD4-GST (BD1 and BD2 (49-460))(31044); GST; purchased BPS Bioscience (BRD4); SignalChem (PKCα) 31044; P61-18G
Briefly: BRD4 phosphorylation by PKC, western blot. In kind it is biochemical. The procedure: Kinase reaction was performed using 1 μM PHICS (2.1, 2.2, 2.3, 2.4, 2.5 and (R)-2.3), 50 nM PKC, 700 nM BRD4-GST and 50 μM ATP for 1 hr at room temperature before quenching with SDS loading buffer. Proteins were resolved in NuPAGE 4-12% Bis-Tris protein gels and transferred to a PVDF membrane. After incubation of the membrane with the blocking buffer, phospho-PKC substrate motif [(R/K)XpSX(R/K)] (Cell Signaling, Cat #6967) (1:1000) primary antibody was added to the membrane and further incubated at 4° C. for overnight. HRP-conjugated secondary antibodies or IRDye 800CW/IRDye 680RD secondary antibodies were used to visualize the protein bands.
(§1) Similar approaches were followed to determine the phosphorylation of BRD4 with different AMPK and PKC isoforms as well as phosphorylation of different BRD proteins.
For orientation: Immunoblotting shows a protein as a band on a membrane.

In assay [5] the target is T4, BRD4 and PKC (α-isoform) (Homo sapiens, UniProt O60885+P17252).
T4 construct: BRD4-His tag (BD1 and BD2 (49-460))(31045); purchased BPS Bioscience (BRD4); SignalChem (PKCα) 31045; P61-18G
As to the kind of experiment: AlphaScreen ternary complex formation. The assay is classed as binding. How it is done: A similar approach was followed to determine the PHICS2 induced ternary complex formation between PKC: PHICS2: BRD4-GST (BD1 and BD2). Initially, concentration series of PHICS (2.1, 2.2, 2.3, 2.4 and 2.5) with different linkers and (R)-PHICS2.3 with DMSO control were prepared in a white opaque 384-well microplate using a dilution assay buffer with 1% DMSO in the final mixture. Then 10 nM PKC-GST and 100 nM BRD4 (6×His tag) were added to the mixture and incubated at room temperature. Following 1 hr incubation, acceptor beads and donor beads were added to the system.

Assay [6] concerns the target T5, BRD4 (PKCβII) (Homo sapiens, UniProt O60885+P05771).
T5 construct: BRD4-GST (BD1 and BD2 (49-460))(31044); purchased SignalChem (PKC); BPS Bioscience (BRD4) P63-18G; 31044
Briefly: BRD4 phosphorylation by PKC isoform, western blot. The assay is classed as biochemical.
Excerpt: as §1

For assay [7], the target named is T6, BRD4 (PKCδ) (Homo sapiens, UniProt O60885+Q05655).
T6 construct: BRD4-GST (BD1 and BD2 (49-460))(31044); purchased SignalChem (PKC); BPS Bioscience (BRD4) P64-18G; 31044
As to the kind of experiment: BRD4 phosphorylation by PKC isoform, western blot. The assay is classed as biochemical.
Excerpt: as §1

For assay [8], the target named is T7, BRD4 (PKCβI) (Homo sapiens, UniProt O60885+P05771).
T7 construct: BRD4-GST (BD1 and BD2 (49-460))(31044); purchased SignalChem (PKC); BPS Bioscience (BRD4) P62-18G; 31044
Briefly: BRD4 phosphorylation by PKC isoform, western blot. In kind it is biochemical.
Excerpt: as §1

Assay [9] has as its target T8, BRD4 (PKCγ) (Homo sapiens, UniProt O60885+P05129).
T8 construct: BRD4-GST (BD1 and BD2 (49-460))(31044); purchased SignalChem (PKC); BPS Bioscience (BRD4) P66-18G; 31044
As to the kind of experiment: BRD4 phosphorylation by PKC isoform, western blot. In kind it is biochemical.
Excerpt: as §1

The target in assay [10] is T9, PKC epsilon (Homo sapiens, UniProt Q02156).
T9 sequence (Q02156 1-737): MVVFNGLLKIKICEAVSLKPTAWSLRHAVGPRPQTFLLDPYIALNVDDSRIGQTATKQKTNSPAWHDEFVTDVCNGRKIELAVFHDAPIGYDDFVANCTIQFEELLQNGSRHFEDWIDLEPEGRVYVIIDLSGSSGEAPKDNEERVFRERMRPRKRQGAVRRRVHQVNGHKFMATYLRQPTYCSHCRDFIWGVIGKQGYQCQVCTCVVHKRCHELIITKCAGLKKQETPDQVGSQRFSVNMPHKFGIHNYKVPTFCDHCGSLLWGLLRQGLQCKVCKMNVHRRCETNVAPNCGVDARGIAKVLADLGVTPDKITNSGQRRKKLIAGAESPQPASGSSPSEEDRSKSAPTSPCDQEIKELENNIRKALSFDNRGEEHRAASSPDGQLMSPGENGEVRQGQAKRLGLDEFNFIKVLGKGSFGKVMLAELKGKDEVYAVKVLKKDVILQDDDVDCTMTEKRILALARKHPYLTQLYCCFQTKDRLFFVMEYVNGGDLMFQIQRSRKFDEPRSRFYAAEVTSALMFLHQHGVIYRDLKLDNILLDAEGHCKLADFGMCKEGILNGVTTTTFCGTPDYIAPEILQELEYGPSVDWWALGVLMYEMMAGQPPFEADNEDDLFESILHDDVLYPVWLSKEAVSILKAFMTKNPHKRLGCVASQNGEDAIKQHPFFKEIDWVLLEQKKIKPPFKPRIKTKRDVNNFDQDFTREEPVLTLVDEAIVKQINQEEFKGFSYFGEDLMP
Conditions: cited from earlier work.

Assay [11] addresses PKCalpha (Homo sapiens, UniProt P17252). The conditions noted are these: cited from earlier work.
For assay [12], the target named is PKC beta (Homo sapiens, UniProt P05771). Conditions: cited from earlier work.
The target in assay [13] is PKCδ (Homo sapiens, UniProt Q05655). Conditions: cited from earlier work.
The target in assay [14] is PKC delta (Homo sapiens, UniProt Q05655). Conditions: cited from earlier work.
Assay [15] relates to lung cancer and HeLa cervical adenocarcinoma cells. Conditions: formation of membrane ruffles; cited from earlier work.
Assay [16] concerns the target T10, BTK (Ser180) (Homo sapiens, UniProt Q06187, D539N).
T10 construct: expressed in transfected cells; host or cells: HEK293T
As to the kind of experiment: BTK Ser180 phosphorylation in HEK293T cells, western blot. In kind it is cell-based. Conditions: BTK D539N mutant.

Assay [17] addresses T11, BTK (Ser180) (Homo sapiens, UniProt Q06187, S180A).
T11 construct: expressed in transfected cells; host or cells: HEK293T
Described as above. In kind it is cell-based. Conditions: BTK-Flag S180A mutant.

Assay [18] addresses BTK (Ser180) (Homo sapiens, UniProt Q06187). Described as above. In kind it is cell-based.
Assay [19] addresses T12, BTK (Ser180) (Homo sapiens, UniProt Q06187, K430R).
T12 construct: expressed in transfected cells; host or cells: HEK293T
The description is as above. In kind it is cell-based. The conditions noted are these: BTK K430R mutant.

The target of assay [20] is T13, BTK (Ser180) (Homo sapiens, UniProt Q06187, T474A).
T13 construct: expressed in transfected cells; host or cells: HEK293T
T13 sequence (Q06187 2-659 T474A): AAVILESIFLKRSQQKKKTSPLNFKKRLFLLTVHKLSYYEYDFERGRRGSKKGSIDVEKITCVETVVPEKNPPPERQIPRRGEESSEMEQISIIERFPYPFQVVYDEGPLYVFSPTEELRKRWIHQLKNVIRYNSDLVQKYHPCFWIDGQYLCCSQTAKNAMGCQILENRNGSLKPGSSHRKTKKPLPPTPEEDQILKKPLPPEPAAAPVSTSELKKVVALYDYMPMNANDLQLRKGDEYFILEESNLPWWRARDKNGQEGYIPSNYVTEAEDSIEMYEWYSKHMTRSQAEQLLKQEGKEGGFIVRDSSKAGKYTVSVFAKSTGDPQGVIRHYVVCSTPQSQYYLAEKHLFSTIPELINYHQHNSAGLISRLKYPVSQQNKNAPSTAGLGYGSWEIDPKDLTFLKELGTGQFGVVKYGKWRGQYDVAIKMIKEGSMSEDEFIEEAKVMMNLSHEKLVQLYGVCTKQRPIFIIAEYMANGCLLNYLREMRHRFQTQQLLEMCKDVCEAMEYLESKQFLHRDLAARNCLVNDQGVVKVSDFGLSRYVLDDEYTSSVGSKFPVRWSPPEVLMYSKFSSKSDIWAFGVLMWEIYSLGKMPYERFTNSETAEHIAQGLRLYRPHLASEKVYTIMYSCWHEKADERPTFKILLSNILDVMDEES
Described as above. In kind it is cell-based. The conditions noted are these: BTK T474A mutant.

The target of assay [21] is BTK (Ser180) (Homo sapiens, UniProt Q06187+Q13131+Q9Y478). As to the kind of experiment: in vitro BTK phosphorylation by AMPK, western blot. The conditions noted are these: phospho BTK (Ser180) antibody. The assay is classed as biochemical. The procedure:
FIG. 69—In-vitro biochemical validation of BTK phosphorylation by AMPK in the presence of PHICS. Western blot analysis for BTK phosphorylation using 10 μM BTK targeting AMPK-PHICS with different linkers for identification of the optimal molecule for further studies.

Assay [22] has as its system AMPK:PHICS3:BTK ternary complex. As to the kind of experiment: co-immunoprecipitation of AMPK with BTK-Flag in HEK293T cells. The assay is classed as cell-based. The conditions noted are these: HEK293T transfected with BTK-Flag. How it is done: Co-immunoprecipitation was performed to evaluate the ternary complex (AMPK: PHICS3: BTK) formation in HEK293T cells after overexpressing the BTK, which is otherwise absent in these cells. HEK293T cells were cultured in DMEM supplemented with 10% FBS, penicillin (100 units/mL) and streptomycin (100 μg/mL). Cells were maintained at 37° C. in 5% CO2 humidified atmosphere.
After 36 hrs transfection of pcDNA3.1(+) BTK-Flag plasmid using TransIT®-293 Transfection Reagent, HEK 293T cells were maintained in a serum-free media overnight before incubation with compounds. After that, cells were treated with 5 μM concentration of AMPK activator or BTK binder or PHICS3 or DMSO control for 4 hrs in a fresh serum-free media before cells were lysed on ice in a lysis buffer (M-PER™ Mammalian Protein Extraction Reagent, Halt™ Protease and Phosphatase Inhibitor Cocktail (2×) and 50 mM NaF). Next, the protein concentrations of cell lysates were measured using Pierce™ BCA Protein Assay Kit. Equal amounts of cell lysates were incubated with Anti-FLAG® M2 Magnetic Beads overnight at 4° C. […] Eluted proteins were analyzed by western blotting using AMPK-α rabbit antibody (Cell Signaling, Cat #5832) or Flag mouse antibody (Cell Signaling, Cat #8146) (1:2000) or Beta-actin mouse antibody (Cell Signaling, Cat #3700) (1:2000).

Chain of BTK (Ser180) (Homo sapiens, UniProt Q06187) (Q06187 2-659): as the sequence (Q06187 2-659 T474A) above, with A473T counted along it
T1 sequence (P00519 whole entry, species assumed, the tested form may be a part): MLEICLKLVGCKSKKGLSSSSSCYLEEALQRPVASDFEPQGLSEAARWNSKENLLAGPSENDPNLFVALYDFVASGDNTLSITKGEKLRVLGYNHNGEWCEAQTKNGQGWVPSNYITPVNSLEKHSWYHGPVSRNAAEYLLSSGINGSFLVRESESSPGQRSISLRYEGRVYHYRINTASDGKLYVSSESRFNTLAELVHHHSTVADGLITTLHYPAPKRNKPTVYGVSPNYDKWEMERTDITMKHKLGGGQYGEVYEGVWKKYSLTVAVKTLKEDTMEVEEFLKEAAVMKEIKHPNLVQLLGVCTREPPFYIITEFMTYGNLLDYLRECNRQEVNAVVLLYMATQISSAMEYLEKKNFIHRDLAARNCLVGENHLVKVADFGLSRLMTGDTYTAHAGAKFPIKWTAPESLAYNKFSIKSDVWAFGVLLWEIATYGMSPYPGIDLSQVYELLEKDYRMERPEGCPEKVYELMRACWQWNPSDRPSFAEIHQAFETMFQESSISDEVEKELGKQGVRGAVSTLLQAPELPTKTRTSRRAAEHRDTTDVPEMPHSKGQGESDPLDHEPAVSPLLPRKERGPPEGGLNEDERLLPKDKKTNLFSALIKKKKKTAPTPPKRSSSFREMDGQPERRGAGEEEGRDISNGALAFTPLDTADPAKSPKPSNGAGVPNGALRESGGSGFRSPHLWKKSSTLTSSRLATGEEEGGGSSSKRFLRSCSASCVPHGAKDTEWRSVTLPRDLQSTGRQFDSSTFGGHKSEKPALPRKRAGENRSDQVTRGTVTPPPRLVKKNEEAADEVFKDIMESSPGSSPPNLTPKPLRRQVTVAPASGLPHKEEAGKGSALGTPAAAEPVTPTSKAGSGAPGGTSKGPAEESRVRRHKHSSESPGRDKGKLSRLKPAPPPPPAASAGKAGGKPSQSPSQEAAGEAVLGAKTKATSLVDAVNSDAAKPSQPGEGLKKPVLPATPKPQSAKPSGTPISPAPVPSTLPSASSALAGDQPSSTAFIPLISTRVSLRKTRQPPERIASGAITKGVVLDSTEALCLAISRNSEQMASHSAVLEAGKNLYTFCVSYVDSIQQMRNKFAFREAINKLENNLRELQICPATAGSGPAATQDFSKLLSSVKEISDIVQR
Chain of BTK (Ser180) (Homo sapiens, UniProt Q06187+Q13131+Q9Y478) (Q06187 whole entry): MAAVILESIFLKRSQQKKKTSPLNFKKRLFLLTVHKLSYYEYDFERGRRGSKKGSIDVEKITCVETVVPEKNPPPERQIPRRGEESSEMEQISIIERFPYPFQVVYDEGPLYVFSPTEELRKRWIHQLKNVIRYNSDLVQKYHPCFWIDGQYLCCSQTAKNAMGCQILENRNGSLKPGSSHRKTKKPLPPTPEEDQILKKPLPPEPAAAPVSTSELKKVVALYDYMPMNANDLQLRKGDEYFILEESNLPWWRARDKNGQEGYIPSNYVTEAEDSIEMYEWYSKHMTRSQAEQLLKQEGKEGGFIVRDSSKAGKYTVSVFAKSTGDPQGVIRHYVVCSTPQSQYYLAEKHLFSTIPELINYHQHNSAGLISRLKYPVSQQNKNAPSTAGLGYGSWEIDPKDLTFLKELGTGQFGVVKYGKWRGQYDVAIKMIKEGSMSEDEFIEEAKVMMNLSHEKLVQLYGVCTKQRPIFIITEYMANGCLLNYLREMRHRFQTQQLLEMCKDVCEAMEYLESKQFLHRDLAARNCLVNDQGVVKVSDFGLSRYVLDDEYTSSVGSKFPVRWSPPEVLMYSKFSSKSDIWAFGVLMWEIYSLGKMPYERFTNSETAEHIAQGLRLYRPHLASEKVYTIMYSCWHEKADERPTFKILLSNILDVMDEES
Chain of BTK (Ser180) (Homo sapiens, UniProt Q06187+Q13131+Q9Y478) (Q13131 whole entry): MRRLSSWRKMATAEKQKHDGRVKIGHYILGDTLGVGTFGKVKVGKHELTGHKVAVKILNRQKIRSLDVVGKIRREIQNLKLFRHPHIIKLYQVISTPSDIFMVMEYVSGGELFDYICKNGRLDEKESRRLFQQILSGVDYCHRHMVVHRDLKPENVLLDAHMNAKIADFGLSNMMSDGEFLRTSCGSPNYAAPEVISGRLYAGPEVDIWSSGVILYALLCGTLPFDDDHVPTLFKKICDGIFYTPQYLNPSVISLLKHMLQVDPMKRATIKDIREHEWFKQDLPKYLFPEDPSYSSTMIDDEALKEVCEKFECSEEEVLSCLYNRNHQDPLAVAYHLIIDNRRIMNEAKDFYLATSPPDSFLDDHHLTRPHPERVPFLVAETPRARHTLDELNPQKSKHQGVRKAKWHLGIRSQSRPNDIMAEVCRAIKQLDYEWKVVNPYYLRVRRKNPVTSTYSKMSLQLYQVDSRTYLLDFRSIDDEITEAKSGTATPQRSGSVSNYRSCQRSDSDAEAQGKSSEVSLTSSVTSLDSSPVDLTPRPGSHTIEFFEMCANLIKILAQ
Chain of BTK (Ser180) (Homo sapiens, UniProt Q06187+Q13131+Q9Y478) (Q9Y478 whole entry): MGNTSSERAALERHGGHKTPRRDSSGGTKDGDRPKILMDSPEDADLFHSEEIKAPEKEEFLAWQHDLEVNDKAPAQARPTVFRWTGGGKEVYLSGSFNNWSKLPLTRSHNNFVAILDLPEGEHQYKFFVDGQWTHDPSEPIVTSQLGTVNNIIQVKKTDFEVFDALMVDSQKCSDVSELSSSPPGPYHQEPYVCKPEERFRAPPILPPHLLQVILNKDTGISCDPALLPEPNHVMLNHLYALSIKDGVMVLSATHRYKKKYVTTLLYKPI
Chain of BTK (Ser180) (Homo sapiens, UniProt Q06187+Q13131+Q9Y478) (P54619 whole entry partner): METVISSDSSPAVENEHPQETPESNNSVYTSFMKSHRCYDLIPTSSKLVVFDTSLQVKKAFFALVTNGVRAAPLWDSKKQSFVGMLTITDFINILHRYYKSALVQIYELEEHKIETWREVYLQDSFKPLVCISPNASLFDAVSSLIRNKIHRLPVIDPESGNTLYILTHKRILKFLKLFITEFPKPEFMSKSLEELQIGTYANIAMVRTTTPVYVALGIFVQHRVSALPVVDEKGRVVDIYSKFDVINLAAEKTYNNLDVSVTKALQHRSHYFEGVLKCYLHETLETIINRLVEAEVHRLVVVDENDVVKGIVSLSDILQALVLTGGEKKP
T11 sequence (Q06187 2-659 S180A): as the sequence (Q06187 2-659 T474A) above, with S179A, A473T counted along it

Consider `O=C1NC(=O)C(c2cn(-c3ccccc3)nc2-c2ccc(F)cc2)N1` (centres unmarked) [DPH, 5-[3-(4-fluorophenyl)-1-phenyl-1H-pyrazol-4-yl]-2,4-imidazolidinedione], for which, in [1], the “ABL activation (ADP-Glo)” value is given as “activated”. For the same compound, the Kd in assay [2] was 137 nM.
For the compound `Cc1sc2c(c1C)C(c1ccc(Cl)cc1)=NC(CC(=O)NCCCCCC(=O)NCc1ccc(COc3ccc4c(c3)N(C)[C@@H](C(C)C)C(=O)N[C@H](CO)C4)cc1)c1nnc(C)n1-2` (some centres unmarked) [PHICS2.3], the “calculated ADP production” value in assay [3] is 740 ± 31 nM. Also, the BRD4 phosphorylation level entry in assay [4] is “highest BRD4 phosphorylation”; in assay [6] it was “modest phosphorylation”; in assay [7], “only minor phosphorylation”; in [8], “modest phosphorylation”; in [9], “only minor phosphorylation”. In addition, in [5], the “ternary complex formation (AlphaScreen), BRD4 and PKC” value is listed as “displayed the bell-shaped curve”.
On to `CC(C)CC(C/C=C1\CC(CO)(COC(=O)C(C)(C)C)OC1=O)CC(C)C` (centres unmarked) [AJH-836], for which the Kd is 1.89 nM in [10], 23.6 nM in assay [11], 19.7 nM in assay [12] and 1.89 nM in [14]. Further, in [13], the PKC isoform selectivity entry was “selective for PKCδ and PKC”. For the same compound, the cytoskeletal reorganization result in [15] was “AJH-836 induced major changes in cytoskeletal reorganization in lung cancer and HeLa cervical adenocarcinoma cells as determined by the formation of membrane ruffles”.
Consider `Nc1ncnc2c1c(-c1ccc(Oc3ccccc3)cc1)nn2[C@@H]1CCCN(C(=O)CCCCCCCCC(=O)NCCOc2ccc(-c3cc4c(C(=O)O)c[nH]c4cc3Cl)cc2)C1` [PHICS3], for which the “BTK phosphorylation at Ser180” value in [16] is recorded as “markedly reduced”; in assay [17], “phosphorylation was not detected”; in [18] (WT BTK-Flag), “optimal molecule for phosphorylation; also recorded: able to detect PHICS-mediated BTK phosphorylation at Ser180”; in assay [18] (pre-treatment with covalent BTK binder ibrutinib), “demolished the ability of PHICS3 to induce BTK phosphorylation”; in assay [19] it was “markedly reduced”; in assay [20], “drastically lowered BTK phosphorylation”. Besides, the “in vitro BTK phosphorylation (linker comparison)” value in assay [21] is “most optimal molecule for phosphorylation; also recorded: optimum”. For the same compound, the “ternary complex formation inside the cells (co-immunoprecipitation)” value in assay [22] is recorded as “co-immunoprecipitation of AMPK with BTK”.

The Kd is the equilibrium constant for the complex coming apart.
